Drawing on patent US20230279023A1, “N/O-Linked Degrons and Degronimers for Protein Degradation” (C4 Therapeutics, Inc., priority 2019, published 2023), this text covers Kd for 69 compounds.

The target in the assay is CRBN-DDB1 (Homo sapiens (Human), UniProt Q96SW2). Briefly: Fluorescence polarization (FP) assay for compound ligand binding to CRBN-DDB1. The settings on record: FP displacement of (−)-Thalidomide-Alexa Fluor or Pomalidomide-fluorescein probe; 400 nM CRBN-DDB1, 5 nM probe; Compounds of the Present Invention. Here is the method: Measuring compound ligand binding to CRBN-DDB1 was carried out using an established sensitive and quantitative in vitro fluorescence polarization (FP) based binding assay. […] Compounds were dispensed from serially diluted DMSO stock into black 384-well compatible fluorescence polarization plates using an Echo acoustic dispenser. Compound binding to CRBN-DDB1 was measured by displacement of either a (−)-Thalidomide-Alexa Fluor® or Pomalidomide-fluorescein conjugated probe dye. […] Matching control wells excluding CRBN-DDB1 were used to correct for background fluorescence. Plates were read on an Envision plate reader with appropriate FP filter sets. The corrected S (perpendicular) and P (parallel) values were used to calculate fluorescence polarization (FP) with the following equation: […]
Sequence of CRBN-DDB1 (Q96SW2 whole entry): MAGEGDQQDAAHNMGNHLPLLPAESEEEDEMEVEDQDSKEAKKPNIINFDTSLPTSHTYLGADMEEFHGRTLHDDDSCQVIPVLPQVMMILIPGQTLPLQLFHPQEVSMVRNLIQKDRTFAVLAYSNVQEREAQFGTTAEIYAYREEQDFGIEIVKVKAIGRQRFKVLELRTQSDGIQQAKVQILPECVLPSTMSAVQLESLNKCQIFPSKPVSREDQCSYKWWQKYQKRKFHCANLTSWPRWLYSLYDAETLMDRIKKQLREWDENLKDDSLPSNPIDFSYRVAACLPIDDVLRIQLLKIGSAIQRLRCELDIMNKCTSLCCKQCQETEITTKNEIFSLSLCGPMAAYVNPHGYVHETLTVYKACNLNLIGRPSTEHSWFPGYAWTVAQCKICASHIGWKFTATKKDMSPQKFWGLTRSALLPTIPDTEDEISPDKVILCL
Sequence of CRBN-DDB1 (Q16531 whole entry partner): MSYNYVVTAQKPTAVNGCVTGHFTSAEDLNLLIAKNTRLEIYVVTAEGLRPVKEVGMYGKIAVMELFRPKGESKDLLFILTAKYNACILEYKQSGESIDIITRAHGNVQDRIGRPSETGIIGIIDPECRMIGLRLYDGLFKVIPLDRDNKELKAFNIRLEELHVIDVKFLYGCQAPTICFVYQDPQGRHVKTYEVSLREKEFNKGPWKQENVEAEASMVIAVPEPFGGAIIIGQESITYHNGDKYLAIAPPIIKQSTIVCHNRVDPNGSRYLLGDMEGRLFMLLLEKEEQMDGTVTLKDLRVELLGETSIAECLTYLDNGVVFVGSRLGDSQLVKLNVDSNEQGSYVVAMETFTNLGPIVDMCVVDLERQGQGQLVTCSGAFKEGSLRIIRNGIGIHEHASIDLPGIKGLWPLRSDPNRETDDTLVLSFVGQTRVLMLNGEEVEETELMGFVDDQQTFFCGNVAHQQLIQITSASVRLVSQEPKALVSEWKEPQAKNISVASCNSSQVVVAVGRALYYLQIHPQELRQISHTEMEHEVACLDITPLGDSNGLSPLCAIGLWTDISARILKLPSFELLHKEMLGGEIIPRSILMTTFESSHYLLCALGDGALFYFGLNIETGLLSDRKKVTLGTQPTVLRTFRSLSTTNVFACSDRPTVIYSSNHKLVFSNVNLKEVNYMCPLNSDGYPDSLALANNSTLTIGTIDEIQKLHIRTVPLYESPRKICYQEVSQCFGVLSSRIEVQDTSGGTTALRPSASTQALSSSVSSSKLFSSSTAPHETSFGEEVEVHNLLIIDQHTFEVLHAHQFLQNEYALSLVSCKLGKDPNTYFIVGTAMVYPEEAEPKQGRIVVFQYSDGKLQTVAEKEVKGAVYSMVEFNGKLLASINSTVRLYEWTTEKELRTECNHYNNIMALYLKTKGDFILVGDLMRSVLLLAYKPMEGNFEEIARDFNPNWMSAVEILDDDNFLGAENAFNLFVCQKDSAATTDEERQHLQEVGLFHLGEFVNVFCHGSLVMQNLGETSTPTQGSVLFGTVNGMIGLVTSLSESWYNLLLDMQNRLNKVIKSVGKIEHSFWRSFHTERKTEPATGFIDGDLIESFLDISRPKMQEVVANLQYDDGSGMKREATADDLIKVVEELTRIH

Bounds are passed on as bounds.

`CN(c1ccccc1)C1CCC(=O)NC1=O` (stereo not drawn) [Compound 1] registered a Kd below 10 µM.
`O=C1CCC(Nc2cccc(-c3ccccc3)c2)C(=O)N1` (stereo not drawn) [Compound 3] yielded a Kd below 10 µM.
For the compound `COc1cc(Cl)c(C)cc1NC1CCC(=O)NC1=O` (stereo not drawn) [Compound 4], the Kd is below 10 µM.
`O=C1CCC(Nc2ccccc2-c2ccccc2)C(=O)N1` (stereo not drawn) [Compound 5]: the Kd is below 10 µM.
Compound `O=C1CCC(Nc2ccc(-c3ccccc3)cc2)C(=O)N1` (stereo not drawn) [Compound 6] returned a Kd below 10 µM.
For `COc1ccc(NC2CCC(=O)NC2=O)cc1F` (stereo not drawn) [Compound 7], the Kd is below 10 µM.
`O=C1CCC(Nc2cccc(F)c2)C(=O)N1` (stereo not drawn) [Compound 9] registered a Kd below 10 µM.
As to `COc1cc(F)ccc1NC1CCC(=O)NC1=O` (stereo not drawn) [Compound 10], the Kd is below 10 µM.
For `COc1ccc(NC2CCC(=O)NC2=O)c(F)c1` (stereo not drawn) [Compound 11], the Kd is below 10 µM.
As for `Cc1ccc(NC2CCC(=O)NC2=O)cc1C#N` (stereo not drawn) [Compound 12], the figure is below 10 µM; as for `COc1cccc(NC2CCC(=O)NC2=O)c1` (stereo not drawn) [Compound 13], below 10 µM; as for `COc1ccccc1NC1CCC(=O)NC1=O` (stereo not drawn) [Compound 15], below 10 µM.
Compound `COc1cccc(N(C)C2CCC(=O)NC2=O)c1` (stereo not drawn) [Compound 16] displayed a dissociation constant (Kd) below 10 µM.
As for `Cc1cccc(N(C)C2CCC(=O)NC2=O)c1` (stereo not drawn) [Compound 18], the figure is below 10 µM; as for `O=C1CCC(Nc2cc(Cl)ccc2O)C(=O)N1` (stereo not drawn) [Compound 19], below 10 µM; as for `COc1ccc(N(C)C2CCC(=O)NC2=O)cc1` (stereo not drawn) [Compound 20], below 10 µM.
For `O=C1CCC(Nc2cccc(-c3ccccn3)c2)C(=O)N1` (stereo not drawn) [Compound 22], the Kd was below 10 µM.
`O=C1CCC(Nc2ccccc2Oc2ccccc2)C(=O)N1` (stereo not drawn) [Compound 23] showed a Kd below 10 µM.
As for `O=C1CCC(Nc2ccc(C(F)(F)F)cc2)C(=O)N1` (stereo not drawn) [Compound 26], the figure is below 10 µM; as for `O=C1CCC(Nc2ccc(CN3CCOCC3)cc2)C(=O)N1` (stereo not drawn) [Compound 27], below 10 µM; as for `O=C1CCC(Nc2ccc(Oc3ccccc3)cc2)C(=O)N1` (stereo not drawn) [Compound 28], below 10 µM.
On to `COc1cc(NC2CCC(=O)NC2=O)cc(C(F)(F)F)c1` (stereo not drawn) [Compound 29], for which the Kd is below 10 µM.
In turn, `O=C1CCC(Nc2cccc(Oc3ccccc3)c2)C(=O)N1` (stereo not drawn) [Compound 30] came in with a Kd below 10 µM.
As for `CCCOc1ccc(NC2CCC(=O)NC2=O)cc1` (stereo not drawn) [Compound 31], the figure is below 10 µM; as for `CN(c1ccc(Br)cc1)C1CCC(=O)NC1=O` (stereo not drawn) [Compound 32], below 10 µM.
In turn, `CN(c1cccc(F)c1)C1CCC(=O)NC1=O` (stereo not drawn) [Compound 33] displayed a Kd below 10 µM.
Take `CN(c1cccc(Cl)c1)C1CCC(=O)NC1=O` (stereo not drawn) [Compound 34]: the Kd was below 10 µM.
Consider `O=C1CCC(Nc2cccc(C(F)(F)F)c2)C(=O)N1` (stereo not drawn) [Compound 35], for which the Kd was below 10 µM.
Take `COc1ccc(NC2CCC(=O)NC2=O)c(C)c1` (stereo not drawn) [Compound 36]: the Kd was below 10 µM.
Next, `O=C1CCC(Nc2ccc(Cl)cc2)C(=O)N1` (stereo not drawn) [Compound 37]: below 10 µM.
In turn, `Cc1ccc(NC2CCC(=O)NC2=O)cc1` (stereo not drawn) [Compound 38] gave a Kd below 10 µM.
Regarding `O=C1CCC(Nc2cccc(-c3cnco3)c2)C(=O)N1` (stereo not drawn) [Compound 39], the Kd was below 10 µM.
As for `O=C1CCC(Nc2cccc(Cl)c2)C(=O)N1` (stereo not drawn) [Compound 40], the figure is below 10 µM; as for `CC(C)(C)c1ccccc1NC1CCC(=O)NC1=O` (stereo not drawn) [Compound 41], below 10 µM; as for `COc1ccc(C)cc1NC1CCC(=O)NC1=O` (stereo not drawn) [Compound 42], below 10 µM.
`O=C1CCC(Nc2ccc(F)cc2Cl)C(=O)N1` (stereo not drawn) [Compound 43] yielded a dissociation constant (Kd) below 10 µM.
`COc1ccc(Cl)c(NC2CCC(=O)NC2=O)c1` (stereo not drawn) [Compound 44] registered a Kd below 10 µM.
`O=C1CCC(Nc2cc(F)ccc2Cl)C(=O)N1` (stereo not drawn) [Compound 45] showed a Kd below 10 µM.
Compound `COc1ccc(NC2CCC(=O)NC2=O)cc1Cl` (stereo not drawn) [Compound 46] returned an equilibrium dissociation constant (Kd) below 10 µM.
As for `COc1cc(Cl)ccc1NC1CCC(=O)NC1=O` (stereo not drawn) [Compound 47], the Kd was below 10 µM.
As for `COc1ccc(Cl)cc1NC1CCC(=O)NC1=O` (stereo not drawn) [Compound 48], the figure is below 10 µM.
In turn, `O=C1CCC(Nc2ccccc2Cl)C(=O)N1` (stereo not drawn) [Compound 49] returned a Kd below 10 µM.
In turn, `Cc1ccccc1NC1CCC(=O)NC1=O` (stereo not drawn) [Compound 50] returned a Kd below 10 µM.
On to `Cn1ccc2cc(NC3CCC(=O)NC3=O)ccc21` (stereo not drawn) [Compound 51], for which the Kd is below 10 µM.
With `COc1ccc(NC2CCC(=O)NC2=O)cc1` (stereo not drawn) [Compound 52], the Kd is below 10 µM.
In the case of `O=C1CCC(Nc2ccccc2F)C(=O)N1` (stereo not drawn) [Compound 53], the Kd was below 10 µM.
`O=C1CCC(Nc2c(F)cccc2Cl)C(=O)N1` (stereo not drawn) [Compound 54] returned a Kd below 10 µM.
Next, `O=C1CCC(Nc2ccccc2OC(F)F)C(=O)N1` (stereo not drawn) [Compound 55]: below 10 µM.
In the case of `N#Cc1cccc(NC2CCC(=O)NC2=O)c1` (stereo not drawn) [Compound 56], the Kd was below 10 µM.
In turn, `CN(c1cccc(Br)c1)C1CCC(=O)NC1=O` (stereo not drawn) [Compound 57] gave a Kd below 10 µM.
On to `CN(c1cccc(C(F)(F)F)c1)C1CCC(=O)NC1=O` (stereo not drawn) [Compound 58], for which the dissociation constant Kd was below 10 µM.
Take `CN(c1ccc(C(F)(F)F)cc1)C1CCC(=O)NC1=O` (stereo not drawn) [Compound 59]: the Kd was below 10 µM.
The compound `CN(c1ccc(Cl)c(Cl)c1)C1CCC(=O)NC1=O` (stereo not drawn) [Compound 60] displayed a Kd below 10 µM.
`Cc1ccccc1N(C)C1CCC(=O)NC1=O` (stereo not drawn) [Compound 61] gave a Kd below 10 µM.
Take `COc1c(Cl)cccc1NC1CCC(=O)NC1=O` (stereo not drawn) [Compound 62]: the Kd was below 10 µM.
As to `O=C1CCC(Nc2cccc(N3CCOCC3)c2)C(=O)N1` (stereo not drawn) [Compound 64], the Kd was below 10 µM.
Consider `Cc1cccc(NC2CCC(=O)NC2=O)c1C#N` (stereo not drawn) [Compound 65], for which the Kd is below 10 µM.
`CN1CCN(c2ccc(NC3CCC(=O)NC3=O)cc2)CC1` (stereo not drawn) [Compound 66] showed a Kd below 10 µM.
As for `O=C1CCC(Nc2ccc(N3CCOCC3)cc2)C(=O)N1` (stereo not drawn) [Compound 67], the Kd is below 10 µM.
`Cc1ccc(C#N)cc1NC1CCC(=O)NC1=O` (stereo not drawn) [Compound 68] came in with a Kd above 100 µM.
Next, `COc1ccc(NC2CCC(=O)NC2=O)c(OC)c1` (stereo not drawn) [Compound 70]: below 10 µM; `O=C1CCC(Nc2cccc3ccccc23)C(=O)N1` (stereo not drawn) [Compound 77]: below 10 µM; `CC(C)(C)OC(=O)N1CCc2cc(NC3CCC(=O)NC3=O)ccc2C1` (stereo not drawn) [Compound 79]: below 10 µM.
As to `CC(C)(C)OC(=O)N1CCC(c2ccc(NC3CCC(=O)NC3=O)cc2)CC1` (stereo not drawn) [Compound 81], the Kd was below 10 µM.
Take `CC(C)(C)OC(=O)N1CCN(c2cccc(NC3CCC(=O)NC3=O)c2)CC1` (stereo not drawn) [Compound 82]: the Kd was below 10 µM.
With `O=C1CCC(Nc2ccc(C3CCNCC3)cc2)C(=O)N1` (stereo not drawn) [Compound 85], the Kd was below 10 µM.
Take `O=C1CCC(Nc2cccc(N3CCNCC3)c2)C(=O)N1` (stereo not drawn) [Compound 86]: the Kd is below 10 µM.
On to `CN(c1cccc(N2CCN(C(=O)OC(C)(C)C)CC2)c1)C1CCC(=O)NC1=O` (stereo not drawn) [Compound 88], for which the Kd was below 10 µM.
Next, `CC(C)(C)OC(=O)n1cc(C#N)c(NC2CCC(=O)NC2=O)n1` (stereo not drawn) [Compound 95]: above 100 µM.
